Results taken from publication PMC3762829 (PLoS ONE, 2013).
Where “and” joins values, the source holds several entries; their conditions need not be identical. Identical values can stand only once. Like-named read-outs stand apart in the source and are kept apart here. Each block holds one compound with its values, some of them ahead of it.

Experiments:
[1] = test system: GK peptide cross linking in the presence of ribose; experiment: N-acetyl-glycyl-lysine methyl ester (GK peptide)-ribose assay, late glycation products; assay type: biochemical
Description: GK-peptide-ribose assay was performed with slight modifications from the previously published method. […] The fluorescence of the mixture was read at 340 nm excitation wavelength and 420 nm emission wavelengths using a Shimadzu RF-5301 spectrofluorometer.

[2] = test system: MG-mediated HSA glycation; conditions: 14 days
Source text: The % inhibition of AGEs formation = [1 −(fluorescence of the test group/fluorescence of the control group)] × 100.

hemoglobin = test system: hemoglobin; parameters: method as in PMID 14568007; conditions: cited from earlier work
platelets = test system: platelets
Source text: Platelet rich plasma was obtained from the supernatant resulting from the centrifugation of blood at 200 g at room temperature.

[3] = test system: HbA1C formation (hemoglobin); experiment: Hemoglobin-δ-gluconolactone (δ-Glu) assay, early stage glycation; assay type: biochemical, human
Description: The Hemoglobin-δ-gluconolactone (δ-Glu) assay was performed as per previously published procedure. All the blood samples were analyzed in triplicates. The percent inhibition of HbA1C formation by the compound was calculated by: (B-C)/(B-A)X100, where A is HbA1C concentration in the baseline control tube not treated with δ-Glu, B is the HbA1C content of the test tube treated with δ-Glu, and C is the HbA1C levels in the sample treated with both δ-Glu and the compound under study.

HSA glycation by DHA = assay type: biochemical, human; conditions: HSA + 20 mM DHA
Source text: The method of Rahbar et al., was followed with slight modifications for the determination of percent of AGEs formed [26].

SMILES: N=C(N)NN [AG, aminoguanidine]
- inhibition of late glycation products ([1]; 10 mM): 60%
- inhibition of MG-catalysed HSA glycation ([2]; 10 mM, 40 mM MG, 37°C): 49%
- effect on hemoglobin glycation (hemoglobin): no significant effect
- total lactate dehydrogenase released in the incubation medium (platelets; 10 mM, incubation time 0 min): 0±0.000%
- total lactate dehydrogenase released in the incubation medium (platelets; 10 mM, incubation time 30 min): 2.86±0.413%
- total lactate dehydrogenase released in the incubation medium (platelets; 10 mM, incubation time 60 min): 4.23±0.432%
- total lactate dehydrogenase released in the incubation medium (platelets; 10 mM, incubation time 90 min): 5.81±0.134%
- total lactate dehydrogenase released in the incubation medium (platelets; 10 mM, incubation time 120 min): 6.63±0.232%
- inhibition in the formation of HbA1c ([3]; 10 mM): 15%
- inhibition of fluorescence associated with AGE product formation (HSA glycation by DHA; 10 mM): 70.1%

- total lactate dehydrogenase released in the incubation medium (platelets; 200 µM, incubation time 0 min): 0±0.000%
- total lactate dehydrogenase released in the incubation medium (platelets; 200 µM, incubation time 30 min): 1.23±0.232%
- total lactate dehydrogenase released in the incubation medium (platelets; 200 µM, incubation time 60 min): 2.23±0.331%
- total lactate dehydrogenase released in the incubation medium (platelets; 200 µM, incubation time 90 min): 3.56±0.237%
- total lactate dehydrogenase released in the incubation medium (platelets; 200 µM, incubation time 120 min): 4.23% and 4.23±0.352%
- total lactate dehydrogenase released in the incubation medium (platelets; 225 µM, incubation time 120 min): 4.51±0.312%
- total lactate dehydrogenase released in the incubation medium (platelets; 250 µM, incubation time 120 min): 5.63±0.563%
- total lactate dehydrogenase released in the incubation medium (platelets; 300 µM, incubation time 120 min): 6.37±0.349%
SMILES: CN(C)C(=N)N=C(N)N [MF, metformin]
- inhibition of late glycation end products ([1]; 200 µM, 14 day period): 66%
- cytotoxicity (LDH leakage), in words (platelets; 200 µM): not cytotoxic
- cytotoxicity (LDH leakage), in words (platelets; above 200 µM): highly cytotoxic
- inhibition in the formation of HbA1c ([3]; 10 µM): 11.6%
- inhibition in the formation of HbA1c ([3]; 100 µM): 17.1%
- inhibition in the formation of HbA1c ([3]; 500 µM): 23.3%
- inhibition in the formation of HbA1c ([3]; 1000 µM, simultaneous incubation): 28.1%
- inhibition of the formation of fluorescent products ([3]; pre-incubation of fresh blood with 1000 µM for 24 h, then δ-gluconolactone): 30.3%

- inhibition of MG-catalysed HSA glycation ([2]; human, 10 mM, pH 7.4): 54%
- inhibition of MG-catalysed HSA glycation ([2]; human, 20 mM, pH 7.4): 69%
- total lactate dehydrogenase released in the incubation medium (platelets; human, 0 min, 20 mM): 0±0.000%
- total lactate dehydrogenase released in the incubation medium (platelets; human, 30 min, 20 mM): 1.23±0.235%
- total lactate dehydrogenase released in the incubation medium (platelets; human, 60 min, 20 mM): 2.11±0.230%
- total lactate dehydrogenase released in the incubation medium (platelets; human, 90 min, 20 mM): 3.23±0.212%
- total lactate dehydrogenase released in the incubation medium (platelets; human, 120 min, 22 mM): 3.92±0.683%
- total lactate dehydrogenase released in the incubation medium (platelets; human, 120 min, 25 mM): 4.14±0.334%
- inhibition of post-Amadori glycation and AGE formation (HSA glycation by DHA; 20 mM): 78.4%
SMILES: Cc1ncc(CO)c(CN)c1O [PM, pyridoxamine]
- inhibition of late glycation end products ([1]; 20 mM): 79%
- inhibition in the formation of HbA1c ([3]; 1 mM): 9.1%
- inhibition in the formation of HbA1c ([3]; 5 mM): 20.4%
- inhibition in the formation of HbA1c ([3]; 10 mM): 29.3%
- inhibition in the formation of HbA1c ([3]; 20 mM): 41.1%
- inhibition of the formation of fluorescent products ([3]; pre-incubation of fresh blood with 20 mM for 24 h, then δ-gluconolactone): 47%
- inhibition of the formation of fluorescent products ([3]; simultaneous incubation of whole blood, δ-gluconolactone and 10 mM (so in the source), data not shown): 41%
